According to patent US12539285B2, “Therapeutic agent for hypertrophic cardiomyopathy” (JUNTENDO EDUCATIONAL FOUNDATION, priority 2021, dated 2026):

Columns and labels:
[1] = system: myocardial cells derived from iPS cells of hypertrophic cardiomyopathy (HCM) patient; test: Fluorescent calcium imaging, peak width of Ca-imaging waveform; type: cell-based; conditions: 10 μM and 30 μM 5-aminolevulinic acid added from 7th day after seeding; FIG. 4
From the text: The determinant of the myocardial relaxation rate is the dissociation rate of myosin and actin, and one of factors of determining the dissociation rate is the Ca^2+ uptake function of ATPase present in the longitudinal tubules of sarcoplasmic reticulum. Accordingly, using the above-mentioned myocardial cells derived from iPS cells of hypertrophic cardiomyopathy (HCM) patient, the peak width of a Ca-imaging waveform, which reflects the disappearance rate of Ca^2+ in myocardial cells (i.e., the uptake rate of Ca^2+ into the sarcoplasmic reticulum) by addition of 5-aminolevulinic acid, was measured. […]
As the measurement apparatus for high content analysis, CQ1 Image Cytometer of Yokogawa Electric Corporation was used, and the measurement was performed with excitation light of 488 nm and fluorescence at 500 to 550 nm (spinning-disk confocal unit with microlens array). […]
Over the entire screen of the obtained image data, the fluorescence intensity was digitized over time to obtain fluorescence waveforms. […] The parameters calculated from a waveform were the line width (sec) at each of 10%, 20%, 30%, 50%, 70%, and 90% of the waveform height, the length (sec) of interval between each wave, and the fluorescence intensity (ΔF).

[2] = system: myocardial cells derived from iPS cells of hypertrophic cardiomyopathy patient (MYH7 R403Q); test: Myocardial relaxation rate (SONY SI8000) in HCM patient iPS-derived myocardial cells; type: cell-based; conditions: ALA/SFC 10 μM/5 μM, 30 μM/1 μM, 100 μM/50 μM; measured Day 20 and Day 26 vs before administration (Day 15); FIG. 1
Procedure: (§1) Myocardial cells differentiated from iPS cells derived from hypertrophic cardiomyopathy patient were purchased, seeded, and cultured and were then administered with 5-aminolevulinic acid and sodium ferrous citrate (ALA/SFC). As myocardial cells, […] Cardiomyocytes (MYH7 R403Q) (C1081, cat. #556-34781) (FUJIFILM Cellular Dynamics, Inc.) was used. As a control, myocardial cells derived from iPS cells of normal subject (Cell Cardiomyocytes (Control) (C1056, cat. #551-33491) (FUJIFILM Cellular Dynamics, Inc.) was used. As the culture medium for cell seeding, (iCell Plating medium (M1001, cat. #550-33581) (FUJIFILM Cellular Dynamics, Inc.) was used.
(§2) In the cell culture, as the culture medium, iCell Maintenance medium (M1003, cat. #557-3359I) (FUJIFILM Cellular Dynamics, Inc.) was used.
(§3) • Day 1: Cell seeding (myocardial cells derived from iPS cells of hypertrophic cardiomyopathy patient, myocardial cells derived from iPS cells of normal subject). The cells were seeded at 3×10^4 per well in a 96-well plastic plate (nunc); • Day 15: The relaxation rate before administration was measured using SONY SI8000, and ALA/SFC were then administered on the same day at the following doses. The doses were four groups of 0 μM/0 μM, 10 μM/5 μM, 30 μM/1 μM, and 100 μM/50 μM of ALA/SFC for each of the disease myocardial cells and the normal myocardial cells. […]

[3] = system: myocardial cells derived from iPS cells of normal subject; test: Myocardial relaxation rate (SONY SI8000) in normal myocardial cells; type: cell-based; conditions: ALA/SFC 10 μM/5 μM, 30 μM/1 μM, 100 μM/50 μM; measured Day 20 and Day 26 vs before administration (Day 15); FIG. 2
Procedure: as §1, §2, §3

[4] = system: zebrafish cardiomyopathy model (myocardial troponin T knockdown (tnnt2a KD)); test: Zebrafish cardiomyopathy model (tnnt2a KD), peak filling rate by heart imaging; type: in vivo; conditions: ALA/SFC 100 μM/50 μM in culture solution, DAY 0-2, imaging DAY 3; FIG. 5
From the text: A synthetic nucleic acid, morpholino antisense oligo (MO), which inhibits translation of zebrafish myocardial troponin T (tnnt2a), was used. The target sequence of tnnt2a-MO used for producing this cardiomyopathy model was 5′-[…]-3′ (SEQ ID NO: 1), and the target sequence of standard control MO (Control-MO) used as a negative control was 5′-[…]-3′ (SEQ ID NO: 2). Both MOs used were produced by Certified GeneTool, Inc. Standard control MO (Lis-MO) having the 3′ terminal labeled with a red fluorescent material, Lissamine, was used as an internal standard substance. An MO powder diluted with nuclease free water to 1 mM was used as a stock solution, and the final concentrations of the tnnt2a-MO and Control-MO were adjusted to 1.2 μM and the final concentration of Lis-MO was adjusted to 50 μM, using nuclease free water as a working solution for microinjection. […]
The acquired moving image was converted into sequence images, and the ventricular outline in each frame was recorded as Region of Interest (ROT). Subsequently, the major and minor axes of an ellipse approximating to the ROI on each sequence image were measured by Fit-to-Ellipse algorithm, the volume of the spheroid of each sequence image was calculated as a ventricular volume, and the peak filling rate (PFR: diastolic function) was measured from the rate of change in the obtained ventricular volume.

NCC(=O)CCC(=O)O [5-aminolevulinic acid]
peak width at 50% of the height of a Ca-imaging waveform (uptake of Ca2+ into sarcoplasmic reticulum) [1]: obviously reduced | relaxation rate of myocardial cells in hypertrophic cardiomyopathy [2]: noticeably increased | relaxation rate in normal myocardial cells [3]: did not increase | left ventricular diastolic function (peak filling rate, PFR) [4]: improved
